Data taken from patent publication US20250327034A1, “CELL CULTURE MEDIUM” (Ajinomoto Co., Inc., priority 2022, published 2025).

Test system: CHO cell
Assay: CHO cell fed-batch culture (ambr15) with high L-cysteine feed: antibody yield (Example 6)
Type: cell-based, Chinese hamster
Settings: CHO cells, 11 mM, 18 mM and 23-24 mM equivalent L-cysteine feed sections
Protocol: Basal media were prepared by adding a final concentration of 4 mM L-Glutamine (Thermo Fisher Scientific: 25030081) to media that were designed on the basis of CELLIST™ Basal media (AJINOMOTO CO., INC.: BASAL10).
Feed Media A were prepared on the basis of the commercially available CELLIST™ Feed media (AJINOMOTO CO., INC.: FEED 2). Feed media A containing a final concentration of 11 or 18 mM L-cysteine and 60 g/L glucose were prepared to have a pH of 6.7-6.9 according to the procedures described in the product instructions for FEED 2.
A 110 mM L-cysteine solution (pH 11.3) was prepared.
Using the prepared basal media, CHO suspensions adjusted to 7×10^5 celllls/mL were cultured for 14 days using the ambr15 cell culture system (Sartorius AG). All of the experimental groups were performed with n=2. […] The antibody yields on day 14 in these conditioned sections were measured using Cedex Bio HT (Roche Diagnostics K.K.)

For N[C@@H](CS)C(=O)O [L-cysteine], the “Antibody yield on day 14” value was “improves the antibody yield”.
